# According to patent US20040214803A1, “Use of vitamin d3 analogue for the treatment of autoimmune diabetes” (priority 2001, published 2004):
# What was measured:
# IFN-γ = assay: LPS-induced IFN-γ production in vivo (serum ELISA); parameters: species or system mouse; details: 0.03 μg/Kg per os 72, 48, 24, 1 h before LPS; serum 3 h post LPS
# Description: Lymphokine production was induced in 8 week-old female NOD mice by i.p. injection of 400 μg/mouse Salmonella abortus equi LPS (Sigma). Compound A was administered 72, 48, 24, and 1 h prior to LPS. Blood samples were collected 3 h post LPS injection and serum cytokines measured by ELISA.
# Cytokines were quantified by two-sites ELISA. IFN-γ was determined using paired mAb from PharMingen (San Diego, Calif.). For capture, the mAb was AN-18.17.24. Samples were titrated and incubated overnight at 4° C. To detect bound IFN-γ plates were then incubated with biotinylated XMG1.2 mAb. […] The plates were washed again and incubated with the developing substrate p-nitrophenylphosphate disodium (Sigma) in diethanolamine buffer (pH 9.6; 100 μl/well). The reaction was stopped by adding 50 μl/well NaOH 3N, and absorbance was read at 405 nm. ELISA for IL-12p75 was performed as described (Gately, M. K., et al., Current Protocols Immunol. 1995, 3, 15:6.16.11-16.16.15). Cytokines were quantified from two to three titration points using standard curves generated by purified recombinant mouse cytokines and results expressed as cytokine concentration in ng or pg/ml. Detection limits were 15 pg/ml for both cytokines. […]
# FIG. 3. […] IFN-γ, IL-12p75 and serum calcium levels were quantified 3 h post LPS injection. […] The P values were calculated by Mann-Whitney U test (* indicates P<0.05 vs. vehicle-treated NOD mice).
# CD4+ cells = assay: Proliferation and IFN-γ secretion of CD4+ cells following TCR ligation; assay type: in vivo, mouse
# Description: Single cell suspensions from pancreatic lymph nodes or spleen were incubated with anti-CD4 mab-coated Microbeads (Miltenyi Biotec) and applied onto Mini-MACS columns (Miltenyi Biotec). Purified CD4^+ cells (6×10^5/well) were cultured for 48 h in round-bottom 96-well plates (Costar) pre-coated with 3 μg/ml purified anti-TCR mAb (ATCC HB 218; American Type Culture Collection, Manassas, Va.) with or without 100 U/ml IL-2 and/or 10 μg/ml anti-CD28 mAb. Cultures were performed in synthetic HL-1 medium (Ventrex Laboratories, Portland, Me.) supplemented with 2 mM L-glutamine and 50 μg/ml gentamicin (Sigma). To measure cell proliferation, cultures were pulsed 8 h before harvesting with 1 μCi [^3H]TdR ([…]; Radiochemical Center, Amersham, U.K.). Incorporation of [^3H]TdR was measured by liquid scintillation spectrometry. Alternatively, splenic or pancreatic lymph node CD4^+CD25^+ and CD4^+CD25^− cells were sorted with MultiSort Kit (Miltenyi Biotec, Auburn, Calif.).
# Cytokines were quantified by two-sites ELISA. IFN-γ was determined using paired mAb from PharMingen (San Diego, Calif.). For capture, the mAb was AN-18.17.24. Samples were titrated and incubated overnight at 4° C. To detect bound IFN-γ plates were then incubated with biotinylated XMG1.2 mAb. […] The plates were washed again and incubated with the developing substrate p-nitrophenylphosphate disodium (Sigma) in diethanolamine buffer (pH 9.6; 100 μl/well). The reaction was stopped by adding 50 μl/well NaOH 3N, and absorbance was read at 405 nm. ELISA for IL-12p75 was performed as described (Gately, M. K., et al., Current Protocols Immunol. 1995, 3, 15:6.16.11-16.16.15). Cytokines were quantified from two to three titration points using standard curves generated by purified recombinant mouse cytokines and results expressed as cytokine concentration in ng or pg/ml. Detection limits were 15 pg/ml for both cytokines.
# FIG. 5. (page 5/9) Proliferation and IFN-γ secretion following TCR ligation. Splenic and pancreatic lymph node CD4^+ cells from untreated 8 week-old (□) or 20 week-old NOD mice treated 5×/week from 8 to 16 weeks of age with vehicle (□) or with 0.03 μg/KgCompound A (▪) were positively selected and stimulated (6×10^5 cells/well) with plate-bound anti-TCR mAb (10 μg/ml) in the presence of 100 U/ml IL-2 and/or 5 μg/ml anti-CD28 mAb. A. Cells were pulsed with [^3H]-thymidine during the last 8 hrs of a 48 h culture. Data are presented as mean ±SE of thymidine incorporation (Δ cpm) from triplicate cultures, background values were 790±100 cpm. B. After 48 h of culture, IFN-γ secretion was quantified by ELISA. Results, presented as mean ±SE of triplicate cultures, are from one representative experiment out of four performed.
# [1] = test system: vascularized heart allograft; assay: Vascularized heart allograft survival, C57BL/6 into BALB/c recipients; assay type: in vivo, mouse
# Text: Fully vascularized hearts were grafted into the abdomen of recipient mice as described (Corry, R. J., H. J. Winn, and P. S. Russell. Primarily vascularized allografts of hearts in mice. The role of H-2D, H-2K, and non-H-2 antigens in rejection. Transplantation. 1973, 16:343). Graft survival was monitored by palpation and rejection was confirmed by direct graft inspection.
# [2] = pancreatic lymph node CD4+ cells
# [3] = pancreatic lymph node CD4+ cells from 20 week-old mice
compound,measurement,setting,value
"C[C@H](C/C=C\C(O)(C(F)(F)F)C(F)(F)F)C1=CC[C@H]2/C(=C/C=C3C[C@@H](O)C[C@H](O)C3)CCC[C@]12C [Compound A, 1,25-dihydroxy-16,23Z-diene-26,27-hexafluoro-19-nor vitamin D3]",LPS-induced IFN-γ production,IFN-γ,inhibited significantly
same,IFN-γ secretion after addition of IL-2 and/or anti-CD28 mAb,CD4+ cells; [2],restored
same,"proliferation after addition of IL-2, alone or together with anti-CD28 mAb",CD4+ cells; [2],not restored
same,proliferation to insolubilized anti-TCR mAb vs age-matched controls,CD4+ cells; [3],four times less
same,proliferation to insolubilized anti-TCR mAb vs cells from 8 week-old mice,CD4+ cells; [3],10 times less
same,Graft survival (days) Mean,"[1]; 0.01 μg/kg po (d-1, 0, +1) then 0.003 μg/kg po (d+2 until d+30)",12.00 days
same,Graft survival (days) Mean,"[1]; 0.1 μg/kg po (d-1, 0, +1) then 0.03 μg/kg (d+2 until d 15)",38.20 days
